Test results published in patent publication US7241902B2, “Allylmercaptocaptopril compounds and uses thereof” (Yeda Research and Development Co. Ltd., priority 2001, dated 2007).

What was measured:
papain = biological target: T1, papain (Carica papaya, UniProt P00784); assay: SH modification of papain (residual enzyme activity, benzoyl arginine-p-nitro anilide hydrolysis); assay type: biochemical
T1 sequence (P00784 134-345): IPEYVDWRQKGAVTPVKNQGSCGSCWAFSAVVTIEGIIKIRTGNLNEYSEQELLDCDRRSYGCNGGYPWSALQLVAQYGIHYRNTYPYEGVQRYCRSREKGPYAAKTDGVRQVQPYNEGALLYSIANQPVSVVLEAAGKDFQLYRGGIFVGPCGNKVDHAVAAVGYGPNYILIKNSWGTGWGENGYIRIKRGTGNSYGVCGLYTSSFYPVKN
Method: CPSSA (0–5 mM) modification of activated and gel-filtered papain was conducted at room temperature in 50 mM sodium acetate, 2 mM EDTA pH 6.1. The inhibited papain was reactivated with 5 mM reduced glutathione.
Activated papain was mixed with various concentrations of CPSSA for 10 minutes at room temperature in 50 mM sodium acetate, 2 mM EDTA buffer, pH 6.5. The residual enzyme activity was measured by monitoring the rate of hydrolysis of the substrate benzoyl arginine-p-nitro anilide at 382 nm.

[1] = biological target: T2, angiotensin converting enzyme (Homo sapiens, UniProt P12821); assay: Angiotensin converting enzyme activity in vitro in reference serum (Carmel et al 1979); assay type: biochemical; conditions: serial dilutions added to a reference serum; FIG. 2
T2 construct: from tissue
T2 sequence (P12821 30-1232 limits assumed): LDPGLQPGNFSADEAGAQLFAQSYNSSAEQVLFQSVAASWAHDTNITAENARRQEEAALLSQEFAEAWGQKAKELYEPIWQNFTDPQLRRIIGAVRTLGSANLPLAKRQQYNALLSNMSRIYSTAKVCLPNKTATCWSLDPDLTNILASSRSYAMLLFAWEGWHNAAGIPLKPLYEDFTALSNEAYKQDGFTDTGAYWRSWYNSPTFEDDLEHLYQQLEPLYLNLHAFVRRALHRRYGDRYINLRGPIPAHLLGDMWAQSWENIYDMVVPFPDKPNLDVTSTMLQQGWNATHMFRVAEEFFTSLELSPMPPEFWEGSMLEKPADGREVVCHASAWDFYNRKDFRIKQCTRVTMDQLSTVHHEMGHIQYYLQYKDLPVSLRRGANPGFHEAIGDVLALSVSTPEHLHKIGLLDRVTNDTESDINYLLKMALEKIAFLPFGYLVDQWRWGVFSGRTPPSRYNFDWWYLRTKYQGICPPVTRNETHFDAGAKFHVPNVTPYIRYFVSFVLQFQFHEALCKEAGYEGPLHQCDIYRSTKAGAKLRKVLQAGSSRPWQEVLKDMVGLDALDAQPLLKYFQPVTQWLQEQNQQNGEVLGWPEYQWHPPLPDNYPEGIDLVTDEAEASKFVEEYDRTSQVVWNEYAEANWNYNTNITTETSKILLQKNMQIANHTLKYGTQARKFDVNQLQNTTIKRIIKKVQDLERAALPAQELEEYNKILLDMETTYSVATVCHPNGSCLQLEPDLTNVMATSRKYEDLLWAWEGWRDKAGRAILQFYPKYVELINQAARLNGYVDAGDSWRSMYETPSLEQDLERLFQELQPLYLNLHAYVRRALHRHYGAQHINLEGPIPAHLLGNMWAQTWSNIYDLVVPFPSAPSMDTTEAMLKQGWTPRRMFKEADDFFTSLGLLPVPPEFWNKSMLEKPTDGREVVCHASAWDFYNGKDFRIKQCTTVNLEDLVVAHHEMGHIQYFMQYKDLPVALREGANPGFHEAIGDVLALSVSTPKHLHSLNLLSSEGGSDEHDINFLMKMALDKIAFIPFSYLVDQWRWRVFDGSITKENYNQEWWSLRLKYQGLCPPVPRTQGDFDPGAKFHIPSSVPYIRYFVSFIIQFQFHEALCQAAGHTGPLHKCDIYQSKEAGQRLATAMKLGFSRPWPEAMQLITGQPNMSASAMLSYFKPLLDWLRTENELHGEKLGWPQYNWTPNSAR
Method: The activity of angiotensin-converting enzyme was assayed according to Carmel et al (1979).
In order to determine if CPSSA reacts in a similar way to captopril, which inhibits the activity of angiotensin converting enzyme, serial dilutions of CPSSA were prepared.

[2] = test system: Sprague-Dawley rats fed fructose-rich diet; assay: Fructose-rich diet rat model (Reaven's model): blood pressure, serum triglycerides, insulin, body weight; assay type: in vivo; conditions: for effect on serum insulin levels: FIG. 5
Method: In the present study, the effects of CPSSA and captopril on blood pressure, as well as serum levels of triglycerides and insulin, were compared. RESULTS
Model Sprague-Dawley male rates, five rats/group, 220–240 g body weight, were fed with a fructose-rich diet for three weeks, followed by two weeks of treatment with either CPSSA or captopril predissolved in the drinking water in doses of CPSSA of 40 and 57 mg/kg and 80 mg/kg captopril, together with the fructose-rich diet. The control group was fed only the fructose-rich diet. Measurements of body weight, blood pressure, serum levels of triglycerides and insulin were conducted at 0, 3, and 5 weeks into the treatment.

[3] = two weeks in drinking water, CPSSA 40 and 57 mg/kg, captopril 80 mg/kg

Row | Compound | reactivation of inactivated papain (papain; 5 mM reduced glutathione) | papain enzyme activity after incubation (papain; 10 minutes at room temperature, 50 mM sodium acetate, 2 mM EDTA, CPSSA 0-5 mM, FIG. 1) | degree of inhibition of papain (papain; various concentrations of CPSSA, FIG. 1) | ACE inhibition profile compared with captopril [1] | inhibition of angiotensin converting enzyme activity [1] | activity in decreasing levels of triglycerides compared with captopril ([2]; CPSSA 40 and 57 mg/kg vs captopril 80 mg/kg, FIG. 4) | effect on body weight [2, 3] | effect on blood pressure ([2]; two weeks in drinking water, CPSSA 40 and 57 mg/kg, captopril 80 mg/kg, FIG. 3) | effect on serum levels of triglycerides ([2]; two weeks in drinking water, CPSSA 40 and 57 mg/kg, captopril 80 mg/kg, FIG. 4) | effect on serum insulin levels [2, 3]
1 | C=CCSSC[C@H](C)C(=O)N1CCC[C@H]1C(=O)O [CPSSA, S-allylmercaptocaptopril] | could be restored by reduced glutathione | significant decrease of enzyme activity | concentration dependent | essentially does not differ from the inhibition profile obtained with captopril | concentration dependant | more active than captopril | No effects on body weight | significantly decreased blood pressure | reduced the serum levels of triglycerides | decreased serum insulin levels to normal values
2 | C[C@H](CS)C(=O)N1CCC[C@H]1C(=O)O [captopril, D-3-mercapto-2-methylpropanoyl-L-proline] |  |  |  |  |  |  | No effects on body weight |  |  | decreased serum insulin levels to normal values
